Assay results published in BindingDB's records for PubMed 35315650 (Korea Research Institute of Chemical Technology, 2022).

Assay: Agonist activity at STING in human wild-type THP1-Dual cells co-expressing ISRE reporter assessed as IRF-mediated immune response incubated for 24 hrs by QUANTI Luc based microplate reader method

| SMILES | EC50 |
| --- | --- |
| CCn1nc(C)cc1C(=O)Nc1nc2cc(C(N)=O)ccc2n1CCCNC(=O)OC(C)(C)C | 48.6 µM |
| CCn1nc(C)cc1C(=O)Nc1nc2cc(C(N)=O)cc(OC)c2n1C/C=C/CNC(=O)OC(C)(C)C | 4.6 µM |
| CCn1nc(C)cc1C(=O)Nc1nc2cc(C(N)=O)ccc2n1CCCCCNC(=O)OC(C)(C)C | 1.69 µM |
| CCn1nc(C)cc1C(=O)NCCCn1c(NC(=O)c2cc(C)nn2CC)nc2cc(C(N)=O)ccc21 | 39.1 µM |
| CCn1nc(C)cc1C(=O)Nc1nc2cc(C(N)=O)cc(OC)c2n1C/C=C/Cn1c(NC(=O)c2cc(C)nn2CC)nc2cc(C(N)=O)cc(OCCCN)c21 | 0.00162 µM |
| CCn1nc(C)cc1C(=O)Nc1nc2cc(C(N)=O)ccc2n1CCCCNC(=O)C(C)(C)C | 51.1 µM |
| Cn1cc(C(=O)Nc2nc3cc(C(N)=O)ccc3n2CCCCn2c(NC(=O)c3cn(C)nc3C(F)(F)F)nc3cc(C(N)=O)ccc32)c(C(F)(F)F)n1 | 17.6 µM |
| CCn1nc(C)cc1C(=O)NCCCOc1cc(C(N)=O)cc2nc(NC(=O)c3cc(C)nn3CC)n(C/C=C/Cn3c(NC(=O)c4cc(C)nn4CC)nc4cc(C(N)=O)cc(OC)c43)c12 | 4e-06 µM |
| CCn1nc(C)cc1C(=O)Nc1nc2cc(C(N)=O)cc(OC)c2n1CCCCNC(=O)OC(C)(C)C | 0.804 µM |
| CCn1nc(C)cc1C(=O)Nc1nc2cc(C(N)=O)cc(OCCCN)c2n1C | 29.8 µM |
| CCn1nc(C)cc1C(=O)Nc1nc2cc(C(N)=O)ccc2n1CCCCNC(=O)c1cc(C)nn1C | 30.1 µM |
| CCn1nc(C)cc1C(=O)Nc1nc2cc(C(N)=O)cc(OC)c2n1C/C=C/Cn1c(NC(=O)c2cc(C)nn2CC)nc2cc(C(N)=O)cc(OCCCNC(=O)OC(C)(C)C)c21 | 0.000354 µM |
| CCn1nc(C)cc1C(=O)Nc1nc2cc(C(N)=O)cc(OCCCNC(=O)OC(C)(C)C)c2n1C | 1.66 µM |
| CCn1nc(C)cc1C(=O)Nc1nc2cc(C(N)=O)ccc2n1CCCCNC(=O)c1ccccc1 | 28.6 µM |
| CCn1nc(C)cc1C(=O)NCCCOc1cc(C(N)=O)cc2nc(NC(=O)c3cc(C)nn3CC)n(C)c12 | 6.22 µM |
| CCn1nc(C)cc1C(=O)/N=c1\[nH]c2cc(C(N)=O)ccc2n1CCCCn1/c(=N/C(=O)c2cc(C)nn2CC)[nH]c2cc(C(N)=O)ccc21 | 1.23 µM |
| CCn1nc(C)cc1C(=O)Nc1nc2cc(C(N)=O)ccc2n1CCCCNC(=O)OC(C)(C)C | 6.55 µM |
| CCn1nc(C)cc1C(=O)NCCCCn1c(NC(=O)c2cc(C)nn2CC)nc2cc(C(N)=O)ccc21 | 9.12 µM |
